From PubChem BioAssay (NCI)
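Interpolation was linear, between the two tested concentrations surrounding the appropriate level; five concentrations were tested over 48 hours in 96-well plates. The concentration for 50% growth inhibition is given as GI50. TGI marks complete inhibition of growth.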

Tests used:
Experiment in all cases: NCI-60 cell line screen, 48 h
[1] = test system: BT-549 breast
[2] = test system: HOP-62 NSCLC
[3] = test system: SF-295 CNS
[4] = test system: A498 renal
[5] = test system: PC-3 prostate
[6] = test system: NCI/ADR-RES ovarian
[7] = test system: KM12 colon
[8] = test system: UACC-62 melanoma
[9] = test system: SK-MEL-28 melanoma
[10] = test system: OVCAR-4 ovarian

## COc1ccc(-c2cc(-c3ccc(Cl)cc3)nc(SCCCCCCC(=O)NO)n2)cc1
[1]
  GI50: 2.16 µM
  TGI: 14 µM
[2]
  GI50: 1.66 µM
  TGI: 15 µM
[3]
  GI50: 1.22 µM
  TGI: 3.01 µM
[4]
  GI50: 1.28 µM
  TGI: 3.8 µM
[5]
  GI50: 1.69 µM
  TGI: 12.7 µM
[6]
  GI50: 0.876 µM
  TGI: 3.83 µM
[7]
  GI50: 2.2 µM
  TGI: 13.1 µM
[8]
  GI50: 1.13 µM
  TGI: 3.51 µM
[9]
  GI50: 2.43 µM
  TGI: 11.7 µM
[10]
  GI50: 2.05 µM
  TGI: 43.1 µM

## CCOC(=O)C(=O)C(/C(=N/N(C)C)C(=O)Nc1ccc(C)cc1C)c1nc2ccccc2[nH]c1=O (stereo not given)
[1]
  TGI: > 100 µM
[2]
  TGI: > 100 µM
[3]
  TGI: > 100 µM
[4]
  TGI: > 100 µM
[5]
  TGI: > 100 µM
[6]
  TGI: > 100 µM
[7]
  TGI: > 100 µM
[8]
  TGI: > 100 µM
[9]
  TGI: > 100 µM
[10]
  TGI: > 100 µM

## Cc1cc(C)c(O)c(CNCCCNCc2cc(C)cc(C)c2O)c1
[1]
  GI50: 10.9 µM
  TGI: 24.5 µM
[2]
  GI50: 6.68 µM
  TGI: 21.8 µM
[3]
  GI50: 1.87 µM
  TGI: 3.81 µM
[4]
  GI50: 1.71 µM
  TGI: 9.24 µM
[5]
  GI50: 6.69 µM
  TGI: 19.8 µM
[6]
  GI50: 2.17 µM
  TGI: 5.75 µM
[7]
  GI50: 2.58 µM
  TGI: 7.24 µM
[8]
  GI50: 1.89 µM
  TGI: 3.43 µM
[9]
  GI50: 1.65 µM
  TGI: 3.19 µM
[10]
  GI50: 3.7 µM
  TGI: 16.1 µM

## COc1ccc(C(=O)c2cc(C)c(OC)c(C)c2)c(OC)c1N(C(=O)CCl)C(=O)CCl
[1]
  GI50: 0.0554 µM
  TGI: 1.43 µM
[2]
  GI50: 0.0546 µM
  TGI: 25 µM
[3]
  GI50: 0.0321 µM
  TGI: 15.5 µM
[4]
  GI50: 0.0244 µM
  TGI: 0.103 µM
[5]
  GI50: 0.0467 µM
  TGI: 18.4 µM
[6]
  GI50: 0.0311 µM
  TGI: 1.48 µM
[7]
  GI50: 0.0421 µM
  TGI: 6.07 µM
[8]
  GI50: 0.067 µM
  TGI: 23.5 µM
[9]
  GI50: 0.168 µM
  TGI: 25.3 µM
[10]
  GI50: 0.719 µM
  TGI: > 67 µM

## O=C1CCC(N2C(=O)c3cccc(NCCOCCOCCNC(=O)c4cc5c(o4)C(=O)c4ccccc4C5=O)c3C2=O)C(=O)N1 (stereo not given)
[1]
  GI50: 1.47 µM
  TGI: 2.84 µM
[2]
  GI50: 1.84 µM
  TGI: 3.3 µM
[3]
  GI50: 1.68 µM
  TGI: 3.08 µM
[4]
  GI50: 1.66 µM
  TGI: 3.12 µM
[5]
  GI50: 2.42 µM
  TGI: 15.1 µM
[6]
  GI50: 17.1 µM
  TGI: 62.1 µM
[7]
  GI50: 3.19 µM
  TGI: 10.9 µM
[8]
  GI50: 1.46 µM
  TGI: 2.98 µM
[9]
  GI50: 1.92 µM
  TGI: 3.9 µM
[10]
  GI50: 1.29 µM
  TGI: 2.57 µM
